Here are results for 21 compounds from patent US10584128B2, “Bicyclic dihydropyrimidine-carboxamide derivatives as Rho-Kinase inhibitors” (CHIESI FARMACEUTICI S.p.A., priority 2016, dated 2020).

One assay deals with Rho kinase 1 (Homo sapiens, UniProt Q13464). Description: In vitro Rho kinase inhibitory activity assay (ADP-Glo kit, Myelin Basic Protein substrate). Format: biochemical. Particulars: 10 μM ATP, 25° C., read-out: ROCK1 inhibitory activity (Ki, range of activity). How it is done:
(§1) The effectiveness of compounds of the present invention to inhibit Rho kinase activity can be determined in a 10 μl assay containing 40 mM Tris pH7.5, 20 mM MgCl2 0.1 mg/ml BSA, 50 μM DTT and 2.5 μM peptide substrate (Myelin Basic Protein) using an ADP-Glo kit (Promega). Compounds were dissolved in DMSO such that the final concentration of DMSO was 1% in the assay. All reactions/incubations are performed at 25° C. Compound (2 ul) and either Rho kinase 1 or 2 (4 μl) were mixed and incubated for 30 mins. Reactions were initiated by addition of ATP (4 μl) such that the final concentration of ATP in the assay was 10 μM. After a 1 hour incubation 10 μl of ADP-Glo Reagent was added and after a further 45 minute incubation 20 ul of Kinase Detection Buffer was added and the mixture incubated for a further 30 minutes. The luminescent signal was measured on a luminometer. […] Compounds were tested in dose-response format and the inhibition of kinase activity was calculated at each concentration of compound. To determine the IC50 (concentration of compound required to inhibit 50% of the enzyme activity) data were fit to a plot of % inhibition vs Log10 compound concentration using a sigmoidal fit with a variable slope and fixing the maximum to 100% and the minimum to 0%. To determine the Ki values the Cheng-Prusoff equation was utilized (Ki=IC50/(1+[S]/Km).
For orientation: ADP-Glo first removes unused ATP, then detects ADP through luciferase.

The next assay addresses Rho kinase 2 (Homo sapiens, UniProt O75116). The description is as above. It is filed as biochemical. Conditions: 10 μM ATP, 25° C., read-out: ROCK2 inhibitory activity (Ki, range of activity). How it is done: as §1

Sequence of Rho kinase 2 (O75116 whole entry): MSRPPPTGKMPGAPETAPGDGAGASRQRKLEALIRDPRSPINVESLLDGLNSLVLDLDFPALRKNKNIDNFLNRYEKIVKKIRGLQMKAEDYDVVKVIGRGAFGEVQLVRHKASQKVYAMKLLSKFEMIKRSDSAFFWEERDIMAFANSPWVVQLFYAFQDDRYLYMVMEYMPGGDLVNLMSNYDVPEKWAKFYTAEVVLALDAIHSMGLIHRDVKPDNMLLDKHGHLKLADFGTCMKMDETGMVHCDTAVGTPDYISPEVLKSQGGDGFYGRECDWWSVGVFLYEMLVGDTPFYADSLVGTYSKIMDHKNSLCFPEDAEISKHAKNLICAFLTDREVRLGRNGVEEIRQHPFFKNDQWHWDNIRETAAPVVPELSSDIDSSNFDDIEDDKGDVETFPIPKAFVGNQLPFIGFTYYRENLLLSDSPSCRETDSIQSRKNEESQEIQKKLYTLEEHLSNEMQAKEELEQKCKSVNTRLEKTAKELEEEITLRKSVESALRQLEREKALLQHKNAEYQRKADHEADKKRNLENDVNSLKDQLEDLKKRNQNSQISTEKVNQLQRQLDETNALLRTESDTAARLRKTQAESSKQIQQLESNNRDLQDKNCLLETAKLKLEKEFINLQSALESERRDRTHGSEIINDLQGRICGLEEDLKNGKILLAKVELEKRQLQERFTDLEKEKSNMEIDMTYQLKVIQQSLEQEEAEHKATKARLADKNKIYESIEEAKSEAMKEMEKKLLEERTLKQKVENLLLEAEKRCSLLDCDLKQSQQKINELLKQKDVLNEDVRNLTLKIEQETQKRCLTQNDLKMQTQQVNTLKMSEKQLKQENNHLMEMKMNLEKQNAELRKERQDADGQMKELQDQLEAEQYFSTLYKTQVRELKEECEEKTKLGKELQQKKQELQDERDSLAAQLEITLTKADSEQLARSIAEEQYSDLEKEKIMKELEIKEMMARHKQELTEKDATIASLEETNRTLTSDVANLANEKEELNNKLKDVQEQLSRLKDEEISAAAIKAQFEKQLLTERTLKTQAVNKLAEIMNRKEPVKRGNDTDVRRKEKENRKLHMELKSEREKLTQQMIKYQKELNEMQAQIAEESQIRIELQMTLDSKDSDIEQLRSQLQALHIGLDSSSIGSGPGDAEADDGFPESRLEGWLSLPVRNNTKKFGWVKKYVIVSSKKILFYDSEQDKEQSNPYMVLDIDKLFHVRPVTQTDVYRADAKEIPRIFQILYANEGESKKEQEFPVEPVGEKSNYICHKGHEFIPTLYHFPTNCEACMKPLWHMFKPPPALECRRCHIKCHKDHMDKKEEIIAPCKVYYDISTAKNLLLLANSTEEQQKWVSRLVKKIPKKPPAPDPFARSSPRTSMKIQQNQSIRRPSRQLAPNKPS
Sequence of Rho kinase 1 (Q13464 whole entry): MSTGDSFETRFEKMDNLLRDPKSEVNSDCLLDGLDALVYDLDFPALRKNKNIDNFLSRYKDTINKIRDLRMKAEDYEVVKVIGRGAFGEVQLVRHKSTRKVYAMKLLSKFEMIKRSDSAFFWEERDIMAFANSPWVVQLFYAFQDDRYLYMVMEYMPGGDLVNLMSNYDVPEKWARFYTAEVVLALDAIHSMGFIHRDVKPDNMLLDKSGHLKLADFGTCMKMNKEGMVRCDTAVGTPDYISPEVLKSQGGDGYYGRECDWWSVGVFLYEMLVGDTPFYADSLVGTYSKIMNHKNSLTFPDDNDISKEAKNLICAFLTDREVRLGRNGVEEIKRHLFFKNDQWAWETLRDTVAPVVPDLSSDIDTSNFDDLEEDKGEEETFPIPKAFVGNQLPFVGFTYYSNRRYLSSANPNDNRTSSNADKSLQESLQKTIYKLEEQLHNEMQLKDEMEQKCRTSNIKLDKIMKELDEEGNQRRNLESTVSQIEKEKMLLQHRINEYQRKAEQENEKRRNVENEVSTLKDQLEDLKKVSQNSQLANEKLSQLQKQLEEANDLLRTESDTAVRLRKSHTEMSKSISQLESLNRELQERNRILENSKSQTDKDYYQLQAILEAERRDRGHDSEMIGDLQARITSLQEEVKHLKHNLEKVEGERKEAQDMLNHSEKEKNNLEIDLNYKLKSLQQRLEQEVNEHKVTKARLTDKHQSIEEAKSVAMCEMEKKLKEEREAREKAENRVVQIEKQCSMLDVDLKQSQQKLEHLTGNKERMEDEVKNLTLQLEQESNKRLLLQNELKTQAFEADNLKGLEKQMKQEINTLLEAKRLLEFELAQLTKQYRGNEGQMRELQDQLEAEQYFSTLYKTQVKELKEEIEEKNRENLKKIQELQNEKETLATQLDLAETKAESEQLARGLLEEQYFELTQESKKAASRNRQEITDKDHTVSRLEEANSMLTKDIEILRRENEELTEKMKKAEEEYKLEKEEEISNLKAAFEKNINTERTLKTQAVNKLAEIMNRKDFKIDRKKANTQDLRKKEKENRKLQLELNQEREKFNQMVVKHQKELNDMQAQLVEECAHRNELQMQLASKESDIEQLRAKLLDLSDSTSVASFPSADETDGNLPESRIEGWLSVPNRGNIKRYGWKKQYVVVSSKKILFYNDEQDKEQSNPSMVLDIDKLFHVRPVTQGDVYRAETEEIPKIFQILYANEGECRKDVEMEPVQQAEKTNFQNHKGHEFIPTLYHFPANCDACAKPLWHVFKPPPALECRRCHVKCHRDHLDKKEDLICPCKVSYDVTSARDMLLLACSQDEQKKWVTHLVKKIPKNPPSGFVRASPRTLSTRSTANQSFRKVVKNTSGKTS

For orientation: Ki means the equilibrium dissociation constant of an inhibitor or competing ligand from its target. As for `CC1=C(C(=O)Nc2ccc3[nH]ncc3c2)C(c2ccc(F)cc2)n2ncc(C(=O)N3CCN(C)CC3)c2N1` (stereo not drawn) [Example 91, 7-(4-fluorophenyl)-N-(1H-indazol-5-yl)-5-methyl-3-(4-methylpiperazine-1-carbonyl)-4,7-dihydropyrazolo[1,5-a]pyrimidine-6-carboxamide], the Ki on Rho kinase 1 and on Rho kinase 2 was above 500 nM throughout.
For `CC1=C(C(=O)Nc2ccc3cnccc3c2)C(c2ccc(C(F)(F)F)c(F)c2F)n2nc(CN(C)C)cc2N1` (single isomer, unassigned) [Example 122a, 7-(2,3-difluoro-4-(trifluoromethyl)phenyl)-2-((dimethylamino)methyl)-N-(isoquinolin-6-yl)-5-methyl-4,7-dihydropyrazolo[1,5-a]pyrimidine-6-carboxamide], the Ki at Rho kinase 1 and on Rho kinase 2 was above 500 nM in each case.
On to `CC1=C(C(=O)Nc2ccc3[nH]ncc3c2)C(c2ccc(F)cc2)n2nc(Br)cc2N1` (stereo not drawn) [Example 30, 2-bromo-7-(4-fluorophenyl)-N-(1H-indazol-5-yl)-5-methyl-4,7-dihydropyrazolo[1,5-a]pyrimidine-6-carboxamide], for which the inhibition constant Ki at Rho kinase 1 and at Rho kinase 2 was below 50 nM throughout.
For `CC1=C(C(=O)Nc2ccc3[nH]ncc3c2)C(c2ccc(C(F)(F)F)cc2)n2nnnc2N1` (single isomer, unassigned) [Example 27A, N-(1H-indazol-5-yl)-5-methyl-7-(4-(trifluoromethyl)phenyl)-4,7-dihydrotetrazolo[1,5-a]pyrimidine-6-carboxamide], the Ki on Rho kinase 1 and on Rho kinase 2 was below 50 nM each time.
Take `CC1=C(C(=O)Nc2ccc3cnccc3c2)C(C2CCC(C(F)(F)F)CC2)n2nc(CN(C)C)cc2N1` (stereo not drawn) [Example 120, 2-((dimethylamino)methyl)-N-(isoquinolin-6-yl)-5-methyl-7-(4-(trifluoromethyl)cyclohexyl)-4,7-dihydropyrazolo[1,5-a]pyrimidine-6-carboxamide]: the Ki on Rho kinase 1 and at Rho kinase 2 was below 50 nM throughout.
On to `CC1=C(C(=O)Nc2ccc3cnccc3c2)C(c2ccc(C(F)(F)F)c(F)c2)n2nc(C(=O)N(C)CCCN(C)C)cc2N1` (stereo not drawn) [Example 89, N2-(3-(dimethylamino)propyl)-7-(3-fluoro-4-(trifluoromethyl)phenyl)-N6-(isoquinolin-6-yl)-N2,5-dimethyl-4,7-dihydropyrazolo[1,5-a]pyrimidine-2,6-dicarboxamide], for which the Ki at Rho kinase 1 and at Rho kinase 2 was below 50 nM in each case.
On to `CC1=C(C(=O)Nc2ccc3cnccc3c2)C(c2ccc(C)c(F)c2)n2nc(CN(C)C)cc2N1` (single isomer, unassigned) [Example 110B, 2-((dimethylamino)methyl)-7-(3-fluoro-4-methylphenyl)-N-(isoquinolin-6-yl)-5-methyl-4,7-dihydropyrazolo[1,5-a]pyrimidine-6-carboxamide], for which the Ki on Rho kinase 1 and on Rho kinase 2 was below 50 nM throughout.
As for `CCOC(=O)c1cc2n(n1)C(c1ccc(C(F)(F)F)c(F)c1)C(C(=O)Nc1ccc3cncc(C)c3c1)=C(C)N2` (stereo not drawn) [Example 114, ethyl 7-(3-fluoro-4-(trifluoromethyl)phenyl)-5-methyl-6-((4-methylisoquinolin-6-yl)carbamoyl)-4,7-dihydropyrazolo[1,5-a]pyrimidine-2-carboxylate], the inhibitory constant (Ki) on Rho kinase 1 and on Rho kinase 2 was below 50 nM throughout.
With `CC1=C(C(=O)Nc2ccc3cnccc3c2)C(c2ccc(C(F)(F)F)c(F)c2)n2nc(CN3CCCC3)cc2N1` (stereo not drawn) [Example 102, 7-(3-fluoro-4-(trifluoromethyl)phenyl)-N-(isoquinolin-6-yl)-5-methyl-2-(pyrrolidin-1-ylmethyl)-4,7-dihydropyrazolo[1,5-a]pyrimidine-6-carboxamide], the Ki on Rho kinase 1 and on Rho kinase 2 was below 50 nM throughout.
With `CCOC(=O)c1cc2n(n1)C(c1ccc(C(F)(F)F)c(F)c1)C(C(=O)Nc1ccc3cnccc3n1)=C(C)N2` (stereo not drawn) [Example 113, ethyl 6-((1,6-naphthyridin-2-yl)carbamoyl)-7-(3-fluoro-4-(trifluoromethyl)phenyl)-5-methyl-4,7-dihydropyrazolo[1,5-a]pyrimidine-2-carboxylate], the inhibitory constant (Ki) on Rho kinase 1 and on Rho kinase 2 was below 50 nM each time.
Turning to `COc1ccc(-c2cc3n(n2)C(c2ccc(F)cc2)C(C(=O)Nc2ccc4[nH]ncc4c2)=C(C)N3)cc1` (stereo not drawn) [Example 20, 7-(4-fluorophenyl)-N-(1H-indazol-5-yl)-2-(4-methoxyphenyl)-5-methyl-4,7-dihydropyrazolo[1,5-a]pyrimidine-6-carboxamide], the inhibition constant (Ki) on Rho kinase 1 and on Rho kinase 2 was below 50 nM throughout.
As to `CC1=C(C(=O)Nc2ccc3[nH]ncc3c2)C(c2ccc(C(F)(F)F)cc2F)n2nnnc2N1` (single isomer, unassigned) [Example 26A, 7-(2-fluoro-4-(trifluoromethyl)phenyl)-N-(1H-indazol-5-yl)-5-methyl-4,7-dihydrotetrazolo[1,5-a]pyrimidine-6-carboxamide], the Ki at Rho kinase 1 and at Rho kinase 2 was below 50 nM throughout.
On to `CC1=C(C(=O)Nc2ccc3cnccc3n2)C(c2ccc(C(F)(F)F)c(F)c2)n2nc(CN(C)C)cc2N1` (stereo not drawn) [Example 123, 2-((dimethylamino)methyl)-7-(3-fluoro-4-(trifluoromethyl)phenyl)-5-methyl-N-(1,6-naphthyridin-2-yl)-4,7-dihydropyrazolo[1,5-a]pyrimidine-6-carboxamide], for which the Ki on Rho kinase 1 and at Rho kinase 2 was below 50 nM throughout.
Regarding `CC1=C(C(=O)Nc2ccc3cnccc3c2)C(c2ccc(C(F)(F)F)c(F)c2)n2nc(C(=O)N(C)CCN3CCCCC3)cc2N1` (single isomer, unassigned) [Example 78A, 7-(3-fluoro-4-(trifluoromethyl)phenyl)-N6-(isoquinolin-6-yl)-N2,5-dimethyl-N2-(2-(piperidin-1-yl)ethyl)-4,7-dihydropyrazolo[1,5-a]pyrimidine-2,6-dicarboxamide], the Ki at Rho kinase 1 was 50 to 500 nM; on Rho kinase 2 it was below 50 nM.
On the same counts, the results for `CC1=C(C(=O)Nc2ccc3cnccc3c2)C(c2ccc(C(F)(F)F)c(F)c2)n2nc(C(=O)N(C)CC3CCN(C)CC3)cc2N1` (stereo not drawn) [Example 85, 7-(3-fluoro-4-(trifluoromethyl)phenyl)-N6-(isoquinolin-6-yl)-N2,5-dimethyl-N2-((1-methylpiperidin-4-yl)methyl)-4,7-dihydropyrazolo[1,5-a]pyrimidine-2,6-dicarboxamide] are below 50 nM and below 50 nM.
In the same order, the values of `CCOC(=O)c1cc2n(n1)C(c1ccc(C(F)(F)F)cc1)C(C(=O)Nc1ccc3cnccc3c1)=C(C)N2` (stereo not drawn) [Example 1, ethyl 6-(isoquinolin-6-ylcarbamoyl)-5-methyl-7-(4-(trifluoromethyl)phenyl)-4,7-dihydropyrazolo[1,5-a]pyrimidine-2-carboxylate] are below 50 nM and below 50 nM.
Regarding `CC1=C(C(=O)Nc2ccc3cnccc3c2)C(c2ccc(C(F)(F)F)c(F)c2)n2nc(C3CCN(C(=O)CCN4CCCCC4)CC3)cc2N1` (stereo not drawn) [Example 135, 7-(3-fluoro-4-(trifluoromethyl)phenyl)-N-(isoquinolin-6-yl)-5-methyl-2-(1-(3-(piperidin-1-yl)propanoyl)piperidin-4-yl)-4,7-dihydropyrazolo[1,5-a]pyrimidine-6-carboxamide], the Ki at Rho kinase 1 and at Rho kinase 2 was below 50 nM in each case.
On to `CC1=C(C(=O)Nc2ccc3cnccc3c2)C(c2ccc(C(F)(F)F)c(F)c2)n2nc(C(=O)N(C)CCN3CCOCC3)cc2N1` (stereo not drawn) [Example 83, 7-(3-fluoro-4-(trifluoromethyl)phenyl)-N6-(isoquinolin-6-yl)-N2,5-dimethyl-N2-(2-morpholinoethyl)-4,7-dihydropyrazolo[1,5-a]pyrimidine-2,6-dicarboxamide], for which the Ki on Rho kinase 1 and at Rho kinase 2 was below 50 nM in each case.
As for `CC1=C(C(=O)Nc2ccc3cnccc3c2)C(c2ccc3ncn(C)c3c2)n2nc(CO)cc2N1` (stereo not drawn) [Example 45, 2-(hydroxymethyl)-N-(isoquinolin-6-yl)-5-methyl-7-(1-methyl-1H-benzo[d]imidazol-6-yl)-4,7-dihydropyrazolo[1,5-a]pyrimidine-6-carboxamide], the Ki on Rho kinase 1 and at Rho kinase 2 was above 500 nM each time.
Consider `CC1=C(C(=O)Nc2ccc3cnccc3c2)C(c2ccc(C(F)(F)F)c(F)c2)n2nc(C(=O)NC3CC(F)(F)C3)cc2N1` (stereo not drawn) [Example 128, N2-(3,3-difluorocyclobutyl)-7-(3-fluoro-4-(trifluoromethyl)phenyl)-N6-(isoquinolin-6-yl)-5-methyl-4,7-dihydropyrazolo[1,5-a]pyrimidine-2,6-dicarboxamide], for which the Ki at Rho kinase 1 and on Rho kinase 2 was below 50 nM throughout.
For `CCOC(=O)c1cc2n(n1)C(C1CCN(C)CC1)C(C(=O)Nc1ccc3[nH]ncc3c1)=C(C)N2` (stereo not drawn) [Example 12, ethyl 6-((1H-indazol-5-yl)carbamoyl)-5-methyl-7-(1-methylpiperidin-4-yl)-4,7-dihydropyrazolo[1,5-a]pyrimidine-2-carboxylate], the Ki on Rho kinase 1 and at Rho kinase 2 was above 500 nM throughout.
